Test: Active substance release from acrylate adhesive matrix into pig skin by Franz's cells, HPLC determination
Assay type: in vitro ADME
Description: The release of the active ingredients within the product is advantageously adjusted such that an effect can still be perceived even after a period of 2 days. The delayed effect of the active substances used is achieved here from combination of active substance content and auxiliaries. The release of the active substances can be controlled over a wide time range via the use of e.g. plasticizers and fillers. Examples of such systems are pain patches on the market that contain opiates such as fentanyl, which are applied over several days up to a week and ensure an absolutely uniform release of the active substance over the entire application time. For the determination of the release rate of vanillyl butyl ether (VBE) from e.g. acrylate compositions, it was incorporated into the adhesive compositions in an amount of 0.75% and the release was ascertained over the time in pig skin by means of Franz's cells. Determination of the released amounts into the full-thickness skin was then carried out by HPLC.
One possible measure to increase the active ingredient release is the use of solubilizers. […] For the two other additives, lower values were determined, meaning that decyl oleate (Cetiol V) in particular is a preferred solubilizer in the adhesive composition. […]

**Q.** For `CCCCCCCC/C=C\CCCCCCCC(=O)OCCCCCCCCCC` [Cetiol V, decyl oleate], which “Effect of added solubilizer on released amount of VBE in pig skin” value is on record?
**A.** Its value is “significant increase in the released amount of VBE”.
